Assays:
Dog intrinsic clearance = assay type: in vitro ADME
Method: (§1) Compound 70 was tested in several in in vitro assays to investigate both metabolism and pharmacokinetics. These assays may be performed according to known methods as generally described in the following references: Conde-Ceide et al. ACS Med. Chem. Lett. 2015, 6, 716-720; Morris et al. J. Med. Chem. 2014, 57, 10192-10197; and Bubser et al. ACS Chem. Neurosci. 2014, 5, 920-942.

[1] = Fraction unbound in rat plasma; assay type: in vitro ADME; details: read-out: Rat Fu (plasma)
Method: as §1

[2] = In vivo pharmacokinetics in dog
Method: (§2) Compound 70 was tested in several in vivo assays and the pharmacokinetic parameters listed in the following table may be determined from pharmacokinetic studies in rat, dog, or cynomolgus monkey, according to known methods as generally described in the following references: Garrison et al. J. Med. Chem. 2022, 65, 6273-6286; Felts et al. J. Med. Chem 2017, 60, 5072-5085; and Yu et al. J. Med. Chem. 2021, 64, 4709-4729.

[3] = In vivo pharmacokinetics in rat
Method: as §2

[4] = Fraction unbound in dog plasma; assay type: in vitro ADME; details: read-out: Dog Fu (plasma)
Method: as §1

human muscarinic 2 = target: T1, human muscarinic 2 (Homo sapiens, UniProt P08172); experiment: Eurofins LeadProfilingScreen, human muscarinic 2 (binding); details: 10 μM (binding)
T1 sequence (P08172 1-466): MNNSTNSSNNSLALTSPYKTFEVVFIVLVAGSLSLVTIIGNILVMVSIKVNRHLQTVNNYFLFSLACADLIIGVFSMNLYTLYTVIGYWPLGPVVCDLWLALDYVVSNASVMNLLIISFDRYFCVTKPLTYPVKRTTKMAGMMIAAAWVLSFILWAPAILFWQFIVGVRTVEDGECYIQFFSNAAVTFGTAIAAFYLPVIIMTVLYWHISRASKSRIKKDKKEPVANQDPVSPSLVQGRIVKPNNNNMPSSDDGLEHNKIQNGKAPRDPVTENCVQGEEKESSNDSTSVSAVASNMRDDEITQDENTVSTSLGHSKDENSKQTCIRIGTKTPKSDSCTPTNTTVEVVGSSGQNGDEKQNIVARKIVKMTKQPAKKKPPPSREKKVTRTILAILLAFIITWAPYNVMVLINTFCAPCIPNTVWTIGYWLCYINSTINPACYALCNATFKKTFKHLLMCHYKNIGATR
Method: Compound 70 was tested using Eurofins LeadProfilingScreen®, which detects potential off-target activity and determines relative selectivity. The screen includes 68 primary molecular targets, including several CNS targets recommended by the EMEA (European Medicines Evaluation Agency) to evaluate drug dependence potential.

## Cc1c(N2CCc3nc(C4(F)CC4)sc3C2)nc2nn(C)c(=O)n2c1C [Compound 70, 7-(2-(1-fluorocyclopropyl)-6,7-dihydrothiazolo[5,4-c]pyridin-5(4H)-yl)-2,5,6-trimethyl-[1,2,4]triazolo[4,3-a]pyrimidin-3(2H)-one]
Dog intrinsic clearance
  CLint scaled: 17 mL/min/kg
[1]
  fraction unbound: 0.267
[2]; oral 3 mg/kg
  Dog oral F (3 mg/kg): 83%
[2]; plasma, read-out: Dog CLp
  clearance: 24.4 mL/min/kg
[2]; plasma, read-out: Dog Elim. t1/2 (converted)
  half-life: 126 min
[2]; plasma, read-out: Dog Vss
  Vd: 3.1 L/kg
[3]; brain / plasma
  Kp: 1.4
[3]; brain / plasma, unbound
  Kp uu: 0.3
[3]; oral 3 mg/kg
  Rat oral F (3 mg/kg): >100%
[3]; plasma, read-out: Rat CLp
  clearance: 4.3 mL/min/kg
[3]; plasma, read-out: Rat Elim. t1/2 (converted)
  half-life: 186 min
[3]; plasma, read-out: Rat Vss
  Vd: 0.7 L/kg
[4]
  fraction unbound: 0.232
Human muscarinic 2
  inhibition at 10 µM: 58%

From patent publication US12139498B1, “Positive allosteric modulators of the muscarinic acetylcholine receptor M4” (Vanderbilt University, priority 2023, dated 2024)
